Reference: patent US20110124842A1 (priority 2003, published 2011)
Where two headings read alike, the source gives them in different places. Bridges are numbered along the chain shown (N, C = ends). Where no end group is shown, it is not given here. [ ]: non-standard residue; d: D form. code O = not defined here; Orn = NCCC[C@H](N)C(=O)O; Aib = CC(C)(N)C(=O)O

Assays:
IgG 4E10 = assay: Competitive ELISA (IC50): peptide competes with biotinylated 4E10-epitope peptide for IgG 4E10; assay type: binding, human; settings: for increased binding affinity in comparison with its peptide control: 33-1 vs control 44-1, 104-2 vs control 104-1, ELISA; for higher affinity of 4E10 than to the original peptide KGND: as determined by surface plasmon resonance and ELISA
Description: IC50, were determined by competitive ELISA using a constant concentration of biotinylated peptide and IgG with a variable concentration of gp41 peptides. Microwells were coated overnight at 4° C. with 50 μl PBS containing neutravidin (Pierce; 4 μg/ml). […] A mixture of a biotinylated 4E10-epitope peptide, […](biotin)-NH2 (SEQ ID NO: 88) (20 nM), IgG 4E10 (0.2 nM), and the competing peptide analog (3-fold dilution series starting at 10 μM) in 0.4% non-fat dry milk, 0.02% Tween and PBS was incubated in a separate 96-well plate at 37° C. for 2 hours. After washing the blocked plate, the mixture of 4E10, biotinylated peptide and competing peptide was added to the wells. After 20 minutes at room temperature, the Wells were washed five times, and a 1:500 dilution of goat anti-human IgG F(ab′)2 HRP conjugate (Pierce) was added. Following incubation at RT for 40 minutes, the wells were washed five times, and developed by adding 50 μl of TMB solution (Pierce) according to the manufacturer's instructions. After ˜20 minutes, wells containing TMB solution were stopped by adding 50 μl of H2SO4 (2M) and the O.D. at 450 nm was read on a microplate reader (Molecular Devices). The concentration of competitor peptide corresponding to a half-maximal signal (IC50) was determined by interpolation of the resulting binding curve. Each peptide competitor was tested in duplicate in at least two separate experiments.
IC50s were determined by competitive ELISA using a constant concentration of biotinylated peptide and IgG with a variable concentration of gp41 peptides. Microwells were coated overnight at 4° C. with 50 μl PBS containing neutravidin (Pierce; 4 μg/ml). […] Meanwhile, a mixture of a biotinylated 4E10-peptide epitope, […](biotin)-NH2 (SEQ ID NO: 88), (20 nM), IgG 4E10 (0.2 nM), and the competing peptide analogue (3-fold dilution series starting at 10 μM) in 0.4% NFDM, 0.02% Tween and PBS was incubated in a separate 96-well plate at 37° C. for 2 h. After washing the blocked plate, the mixture of 4E10, biotinylated peptide and competing peptide was added to the wells. After 20 min at room temperature, the wells were washed five times, and a 1:500 dilution of goat anti-human IgG F(ab′)2 HRP conjugate (Pierce) was added. Following incubation at RT for 40 min, the wells were washed five times, and developed by adding 50 μl of H2SO4 (2 M), and the O.D. at 450 nm was read on a microplate reader (Molecular Devices). The concentration of competitor peptide corresponding to a half-maximal signal (IC50) was determined by interpolation of the resulting binding curve. Each peptide competitor was tested in duplicate in at least two separate experiments.

Fab 4E10 [1] = assay: Surface plasmon resonance (Biacore 2000), Fab 4E10 on CM5 chip; assay type: binding, human
Description: The affinitiefs of the peptide analogs for 4E10 were also measured by surface plasmon resonance. Surface plasmon resonance experiments were performed using a Biacore 2000 instrument (Uppsala, Sweden). Around 2,200 response units (RU) of Fab 4E10 were coated on CM5 chips. The carboxyl groups on the chip were activated with 1-ethyl-3-(3-dimethylaminopropyl)carbodiimide hydrochloride (EDC) and N-hydroxysuccinimide (NHS). Fifty micrograms of Fab were diluted in 10 mM sodium acetate pH 4.5; a flow rate of 5 μl/min was used. Unreacted carboxyl groups were blocked with 1M ethanolamine at pH 8.5. The control was treated in the same fashion without any antibody present. Different amounts of free peptides were then passed over the surfaces at 30 or 50 μl/min for 2 min. Regeneration was done in HPS-EP buffer, 0.25 NaCl (Biacore) in 10 minutes. The amount of salt was increased compared to the commercial buffer to reduce the non-specific binding. For data evaluation, the BIAevaluation software was used. RI and Rmax were controlled, double referencing were done (0 concentration and start point). Analyses were performed to achieve the best curve fitting and small chi^2 (<1).
Surface plasmon resonance experiments were performed using a Biacore 2000 instrument (Uppsala, Sweden).
Chip preparation: around 2,200 response units (RU) of Fab 4E10 were coated on CM5 chips. The carboxyl groups on the chip were activated with 1-ethyl-3-(3-dimethylaminopropyl) carbodiimide hydrochloride (EDC) and N-hydroxysuccinimide (NHS). Fifty micrograms of Fab was diluted in 10 mM sodium acetate pH 4.5; a flow rate of 5 μl/min was used. Unreacted carboxyl groups were blocked with 1M ethanolamine at pH 8.5. The control was treated in the same fashion without any antibody present.
Experiment: different amounts of free peptides were then passed over the surfaces at 30 or 50 μl/min for 2 min. Regeneration was done in HPS-EP buffer, 0.25 NaCl (Biacore) in 10 min. The amount of salt was increased compared to the commercial buffer to reduce the non-specific binding.
Data evaluation: the BIAevaluation software was used. RI and Rmax were controlled, double referencing were done (0 concentration and start point). Analyses were performed to achieve the best curve fitting and small chi^2 (<1).

[2] = target: recombinant IgG1(kappa) 4E10; assay: competitive ELISA: peptide against biotinylated …(biotin)-NH2 for IgG 4E10
Fab 4E10 [3] = assay: SPR (Biacore 2000), Fab 4E10 on CM5 chip, peptide in flow
[4] = target: recombinant IgG1(kappa) 4E10; assay: competitive ELISA
[5] = Table 5, unconstrained peptide analogs, 4E10 binding, read-out: IC50
[6] = Table 6, constrained analogs, 4E10 binding, read-out: IC50
[7] = Table 7, 4E10 peptide epitopes, read-out: IC50
[8] = read-out: IC50 (4E10 binding, competitive ELISA)
[9] = Table 7, 4E10 peptide epitopes, read-out: Kd
[10] = Table 6, constrained analogs, 4E10 binding, read-out: Kd

recombinant IgG1(kappa) 4E10, sequence (heavy, as listed by the source): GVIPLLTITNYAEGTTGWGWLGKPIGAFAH
Fab 4E10, sequence (heavy, as listed by the source): as above

KGWNWFDITNWGK [KGND] gave an IC50 (IgG 4E10; [5]) greater than 10000 nM, an IC50 (IgG 4E10; [6]) greater than 10000 nM and an IC50 (IgG 4E10; [7]) greater than 10000 nM. It also gave an IC50 (IgG 4E10; [8]) of 10000 nM.

Work on “KKBNWFDITNWLWKBKBK-NH2 (KKXNWFDITNWLWKXKXK-NH2; not fully specified (residues 3, 15, 17); printed as KKBNWFDITNWLWKBKBK-NH2) [Peptide 102-2]” yielded an IC50 (IgG 4E10; [6]) of 10 nM.

“NWFCITOWLWKKKK-NH2 (NWFCIT[code O]WLWKKKK-NH2; not fully specified; printed as NWFCITOWLWKKKK-NH2; reading uncertain) [Peptide 104-1]” gave an IC50 (IgG 4E10; [5]) of 40 nM and an IC50 (IgG 4E10; [7]) of 40 nM.

In the case of NWFDITN-Aib-LWRR-NH2 [Peptide 33-1], the “increased binding affinity in comparison with its peptide control” value (IgG 4E10) is reported as 3 fold, the IC50 (IgG 4E10; [7]) is reported as 100 to 400 nM and the “higher affinity of 4E10 than to the original peptide KGND” value (IgG 4E10) is reported as “approximately 10^3 fold”. It also gave a koff (Fab 4E10 [1]; Table 7) of 0.13 s⁻¹, a kon (Fab 4E10 [1]; Table 7) of 431000 M⁻¹ s⁻¹ and a Kd (Fab 4E10 [1]; [9]) of 302 nM.

In the case of NWFDITNWLWKBKBK-NH2 [Peptide 102-1], the IC50 (IgG 4E10; [8]) is reported as 10 nM.

“NWFDITNWLWKKKK [Peptide 84-1, NWFDITNWLWKKKK-NH2]” was tested, and the IC50 (IgG 4E10; [8]) was 40 nM and the Kd (Fab 4E10 [1]; Table 5, unconstrained peptide analogs, 4E10 binding, read-out: Kd) was 100 nM.

With “NWFDITNWLWRR [Peptide 44-1, NWFDITNWLWRR-NH2]” the IC50 (IgG 4E10; [7]) was 600 nM.

With “NWFc(CITO)WLWKKKK-NH2 (NWFCIT[code O]WLWKKKK-NH2; bridge 4-7; reading uncertain; also: printed as NWFc(CITO)WLWKKKK-NH2) [Peptide 104-2]” the “increased binding affinity in comparison with its peptide control” value (IgG 4E10) was 4 fold, the IC50 (IgG 4E10; [6]) was 10 nM and the IC50 (IgG 4E10; [7]) was 10 nM. For the same molecule, the “higher affinity of 4E10 than to the original peptide KGND” value (IgG 4E10) was “approximately 10^3 fold”, the IC50 (IgG 4E10; [8]) was 10 nM and the Kd (Fab 4E10 [1]; [10]) was 17 nM. For the same molecule, the “higher affinity of 4E10 than to peptide 33-1” value (Fab 4E10 [1]; Table 7) was “about 17 fold”, the koff (Fab 4E10 [1]; Table 7) was 0.0034 s⁻¹ and the kon (Fab 4E10 [1]; Table 7) was 202000 M⁻¹ s⁻¹. The Kd (Fab 4E10 [1]; [9]) was 17 nM and the Kd (Fab 4E10 [1]; read-out: Kd (Biacore)) was 17 nM.

For “SLWNWFDITNWLWKKKK [Peptide 84-4, SLWNWFDITNWLWKKKK-NH2]”, the IC50 (IgG 4E10; [5]) was 120 nM.

Work on “SLWNWFDITNWLWYIKKKK [SLWNWFDITNWLWYIKKKK-NH2]” yielded an IC50 (IgG 4E10; [8]) of 10 nM.

“WNWFDITNWLWKKKK [Peptide 84-2, WNWFDITNWLWKKKK-NH2]” was tested, and the IC50 (IgG 4E10; [5]) was 120 nM.

Work on “c(CWFO)ITNWLWKKKK-NH2 (CWF[code O]ITNWLWKKKK-NH2; bridge 1-4; reading uncertain; also: printed as c(CWFO)ITNWLWKKKK-NH2) [Peptide 74-2]” yielded an IC50 (IgG 4E10; [6]) of 230 nM and a Kd (Fab 4E10 [1]; [10]) of 276 nM.

B1: peptide 102-1, …BKBK-NH2 (peptide)
peptide: NWFDITNWLWK[Aib]K[Aib]K-NH2
modifications: N-terminus assumed
SMILES: CC[C@H](C)[C@H](NC(=O)[C@H](CC(=O)O)NC(=O)[C@H](Cc1ccccc1)NC(=O)[C@H](Cc1c[nH]c2ccccc12)NC(=O)[C@@H](N)CC(N)=O)C(=O)N[C@H](C(=O)N[C@@H](CC(N)=O)C(=O)N[C@@H](Cc1c[nH]c2ccccc12)C(=O)N[C@@H](CC(C)C)C(=O)N[C@@H](Cc1c[nH]c2ccccc12)C(=O)N[C@@H](CCCCN)C(=O)NC(C)(C)C(=O)N[C@@H](CCCCN)C(=O)NC(C)(C)C(=O)N[C@@H](CCCCN)C(N)=O)[C@@H](C)O
Molecule B1 has an IC50 [2] of 10 nM.

B2: peptide 102-2, KKB…BKBK-NH2 (peptide)
peptide: KK[Aib]NWFDITNWLWK[Aib]K[Aib]K-NH2
modifications: N-terminus assumed
SMILES: CC[C@H](C)[C@H](NC(=O)[C@H](CC(=O)O)NC(=O)[C@H](Cc1ccccc1)NC(=O)[C@H](Cc1c[nH]c2ccccc12)NC(=O)[C@H](CC(N)=O)NC(=O)C(C)(C)NC(=O)[C@H](CCCCN)NC(=O)[C@@H](N)CCCCN)C(=O)N[C@H](C(=O)N[C@@H](CC(N)=O)C(=O)N[C@@H](Cc1c[nH]c2ccccc12)C(=O)N[C@@H](CC(C)C)C(=O)N[C@@H](Cc1c[nH]c2ccccc12)C(=O)N[C@@H](CCCCN)C(=O)NC(C)(C)C(=O)N[C@@H](CCCCN)C(=O)NC(C)(C)C(=O)N[C@@H](CCCCN)C(N)=O)[C@@H](C)O
Work on B2 yielded an IC50 [2] of 10 nM.

In the case of NWFDITNWLWYIKXKXKK (B = Aib at positions 14 and 16; C-terminal amide) [peptide 119, …BKBKK-NH2], the IC50 [2] is reported as 10 nM.

For CWFXITNWLWKKKK (cyclic thioether between Cys 1 and ornithine (O) 4; C-terminal amide) [peptide 74-2, c(CWFO)…-NH2], the IC50 [2] was 230 nM and the Kd (Fab 4E10 [3]) was 276 nM.

B3: peptide 104-2, NWFc(CITO)WLWKKKK-NH2 (peptide)
peptide: NWFCIT[Orn]WLWKKKK-NH2
modifications: bridge 4-7; not fully specified (bridges); printed as peptide 104-2, NWFc(CITO)WLWKKKK-NH2
With B3 the fold increase of affinity over its control peptide 104-1 [4] was 4 fold, the IC50 [2] was 10 nM and the Kd (Fab 4E10 [3]) was 17 nM. The koff (Fab 4E10 [3]) was 0.0034 s⁻¹ and the kon (Fab 4E10 [3]) was 202000 M⁻¹ s⁻¹.

KGWNWFDITNWGK (not fully specified) [peptide KGND (…)] gave an IC50 [2] greater than 10000 nM.

B4: peptide 33-1, NWFDITN-Aib-LWRR-NH2 (peptide)
peptide: NWFDITN[Aib]LWRR-NH2
modifications: N-terminus assumed
SMILES: CC[C@H](C)[C@H](NC(=O)[C@H](CC(=O)O)NC(=O)[C@H](Cc1ccccc1)NC(=O)[C@H](Cc1c[nH]c2ccccc12)NC(=O)[C@@H](N)CC(N)=O)C(=O)N[C@H](C(=O)N[C@@H](CC(N)=O)C(=O)NC(C)(C)C(=O)N[C@@H](CC(C)C)C(=O)N[C@@H](Cc1c[nH]c2ccccc12)C(=O)N[C@@H](CCCNC(=N)N)C(=O)N[C@@H](CCCNC(=N)N)C(N)=O)[C@@H](C)O
With B4 the fold increase of binding affinity over its control peptide 44-1 [4] was 3 fold, the IC50 [2] was 100 to 400 nM and the Kd (Fab 4E10 [3]) was 302 nM. For the same molecule, the koff (Fab 4E10 [3]) was 0.13 s⁻¹ and the kon (Fab 4E10 [3]) was 431000 M⁻¹ s⁻¹.

NWFDITNWLWRR-NH2 [peptide 44-1, …-NH2] showed an IC50 [2] of 600 nM.

WNWFDITNWLWKKKK-NH2 [peptide 84-2, …-NH2] was tested, and the IC50 [2] was 120 nM.

Work on NWFCIT[Orn]WLWKKKK-NH2 (not fully specified; printed as NWFCITOWLWKKKK-NH2) [peptide 104-1, NWFCITOWLWKKKK-NH2 (acyclic control)] yielded an IC50 [2] of 40 nM.
